In one assay the target is T1, HCV polymerase (Hepatitis C virus genotype 1b, UniProt Q9WMX2).
T1 construct: (His)6 (C); made in house; host or cells: XL-1 cells (E. coli, by own knowledge)
The assay can be described thus: Polymerase assay of Biological Example 1 (IC50 values of Table 3). In kind it is biochemical. The settings on record: IC50 values of Table 3, polymerase assay of Biological Example 1; read-out: NS5B-enzyme3.

Assay [1] deals with HCV replicon I389luc-ubi-neo/NS3-3′/ET in ET (Huh-lucubineo-ET) cells. The assay can be described thus: Replicon assay (Biological Example 2), luciferase readout. In kind it is cell-based. The settings on record: Hepatitis C virus. Summed up: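 EC50 values come from Hill fits of % inhibition of replicon-driven firefly luciferase, relative to no-compound wells. Compounds were serially diluted (10 points, 3-fold, 0.1 nM–50 μM final, 0.5% DMSO) onto ET replicon cells and read after 48 h.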
For orientation: Replicon systems follow genome replication, usually without infectious particles.

[2] abbreviates: ET cells, luciferase activity 48 hours after compound.

With `N#Cc1cccc(S(=O)(=O)N2CC(=O)N(c3cc(-c4ccccc4)sc3C(=O)O)[C@H](C3CCCCC3)C2)c1` [Compound 97, 3-[(R)-4-(3-Cyano-benzenesulfonyl)-2-cyclohexyl-6-oxo-piperazin-1-yl]-5-phenyl-thiophene-2-carboxylic acid], the IC50 at HCV polymerase was 27 nM; in assay [1] (between 100 nM and 5.0 uM) it was 100 to 5000 nM.

As for `O=C(O)c1sc(-c2ccc(F)cc2)cc1N1C(=O)CN(S(=O)(=O)c2ccc(N3CC[C@H](F)C3)nc2)C[C@H]1C1CCCCC1` [Compound 287, 3-{(R)-2-Cyclohexyl-4-[6-((S)-3-fluoro-pyrrolidin-1-yl)-pyridine-3-sulfonyl]-6-oxo-piperazin-1-yl}-5-(4-fluoro-phenyl)-thiophene-2-carboxylic acid], the values for the IC50 (on HCV polymerase; in assay [1] (setting [2])) were 1 nM and ≤ 100 nM, respectively.

As to `O=C(O)c1sc(-c2ccccc2)cc1N1C(=O)CN(Cc2ccc(N3CCCC3=O)cc2)C[C@H]1C1CCCCC1` [Compound 262, 3-{(R)-2-Cyclohexyl-6-oxo-4-[4-(2-oxo-pyrrolidin-1-yl)-benzyl]-piperazin-1-yl}-5-phenyl-thiophene-2-carboxylic acid], the IC50 at HCV polymerase is 25 nM; in assay [1] (between 100 nM and 5.0 uM) it was 100 to 5000 nM.

On to `Cc1ccc(-c2cc(N3C(=O)CN(S(=O)(=O)c4cnn(CC(C)C)c4)C[C@H]3C3CCCCC3)c(C(=O)O)s2)cc1` [Compound 301, 3-[(R)-2-Cyclohexyl-4-(1-isobutyl-1H-pyrazole-4-sulfonyl)-6-oxo-piperazin-1-yl]-5-p-tolyl-thiophene-2-carboxylic acid], for which the IC50 was 4 nM at HCV polymerase and ≤ 100 nM in assay [1] (setting [2]).

Consider `CC(C)(C)C#Cc1cc(N2C(=O)[C@H](CCCCO)OC[C@H]2C2CCCCC2)c(C(=O)O)s1` [Compound 338, 3-[(2S,5R)-5-Cyclohexyl-2-(4-hydroxy-butyl)-3-oxo-morpholin-4-yl]-5-(3,3-dimethyl-but-1-ynyl)-thiophene-2-carboxylic acid], for which the IC50 at HCV polymerase is 31 nM; in assay [1] (between 100 nM and 5.0 uM), 100 to 5000 nM.

`Cc1ccc(-c2cc(N3C(=O)CN(S(=O)(=O)c4ccc(C(F)(F)F)nc4)C[C@H]3C3CCCCC3)c(C(=O)O)s2)cc1` [Compound 300, 3-[(R)-2-Cyclohexyl-6-oxo-4-(6-trifluoromethyl-pyridine-3-sulfonyl)-piperazin-1-yl]-5-p-tolyl-thiophene-2-carboxylic acid]: the IC50 on HCV polymerase was 31 nM; in assay [1] (between 100 nM and 5.0 uM) it was 100 to 5000 nM.

Take `CC1(N)CCN(c2ccc(S(=O)(=O)N3CC(=O)N(c4cc(-c5ccccc5)sc4C(=O)O)[C@H](C4CCCCC4)C3)cn2)CC1` [Compound 138, 3-[(R)-4-(4-Amino-4-methyl-3,4,5,6-tetrahydro-2H-[1,2′]bipyridinyl-5′-sulfonyl)-2-cyclohexyl-6-oxo-piperazin-1-yl]-5-phenyl-thiophene-2-carboxylic acid]: the IC50 was 1 nM at HCV polymerase and ≤ 100 nM in assay [1] (setting [2]).

With `O=C(O)c1sc(-c2ccccc2)cc1N1C(=O)CN(S(=O)(=O)c2ccc(N3CCSCC3)nc2)CC1C1CCCCC1` (stereo not drawn) [Compound 79, 3-[2-Cyclohexyl-6-oxo-4-(6-thiomorpholin-4-yl-pyridine-3-sulfonyl)-piperazin-1-yl]-5-phenyl-thiophene-2-carboxylic acid], the figures for the IC50 (at HCV polymerase; in assay [1] (setting [2])) were 4 nM and ≤ 100 nM, respectively.

On to `C[C@H]1OCC(=O)N(c2cc(C#CC(C)(C)C)sc2C(=O)O)[C@@H]1C1CCCCC1` [Compound 291, 3-((2R,3R)-3-Cyclohexyl-2-methyl-5-oxo-morpholin-4-yl)-5-(3,3-dimethyl-but-1-ynyl)-thiophene-2-carboxylic acid], for which the IC50 on HCV polymerase is 8 nM; in assay [1] (setting [2]), ≤ 100 nM.

(Values after US9498483B2, “2,3,5-trisubstituted thiophene compounds and uses thereof” (priority 2010, dated 2016).)
